Blank lines part the entries; values can stand above or below the molecule they belong to.
Experiments:
recombinant eEF2K = recombinant eEF2K (Homo sapiens (Human), UniProt O00418); assay: eEF2K Kinase-Glo luminescent kinase assay (ATP consumption, peptide substrate); type: biochemical; details: average of two to four separate experimental measurements, each the average of three replicates
Procedure: The following compounds were synthesized using the general methods described above. In the table below, IC50 values are in μM and are the average of two to four separate experimental measurements, each consisting in turn of the average of three replicates. IC50 values were calculated using the methods as described in Example 2. MW was determined by mass spectroscopy analysis, and is expressed as M+1.
To determine the IC50 of compounds of the invention, recombinant eEF2K was diluted in an assay buffer in the presence of calmodulin, a calcium-binding messenger protein expressed in eukaryotic cells, and incubated with peptide substrate Ac-RKKYKFNEDTERRRFL in the presence of Adenosine-5′-triphosphate (ATP) and the test compound. The peptide substrate is efficiently and specifically phosphorylated by eEF2K at a single substrate concentration of 100 μM. Using this peptide, eEF2K activity can be quantitatively determined using a Kinase-Glo® luminescent kinase assay kit (Promega) that measures ATP consumption by EF2K during phosphorylation of the substrate. ATP conversion was recorded using Perkin-Elmer Victor Luminometer. Data was plotted using GraphPad software and IC50 was calculated using 3-parameter sigmoidal curve fit.

[1] = system: rat embryonic myocardium cell line H9C2; assay: Doxorubicin-induced apoptosis, CellTiter-Glo cell viability; details: for recovery, percent of original density: H9C2, 0.4 μM doxorubicin 24 hours
Procedure: The cells were plated into 48-well plates at 0.2×10^5 cells per well and allowed to attach overnight. […] Cell viability was measured on days 1, 2, 3, and 6 using the Promega CellTiter-Glo® Luminescent Cell Viability Assay.

[2] = Pharmacokinetic study, intravenous administration; details: mouse, in vivo, male CD-1 mice, 1 mg/kg
[3] = system: breast cancer cell line MDA-MB-231; assay: Potentiation of doxorubicin effect, CellTiter-Glo cell viability; type: cell-based
Procedure: The potentiation of doxorubicin effect of eEF2K inhibition by Compound 35 in combination with doxorubicin was evaluated. The breast cancer cell line MDA-MB-231 (ATCC No. HTB-26) was incubated with 0.4 μM doxorubicin for 24 hours, with both a negative control (untreated) group and a group receiving only 10 μM Compound 35 but not doxorubicin.

[4] = system: human bone osteosarcoma cancer cell line MG63; assay: Cell viability under normal conditions and nutrient deprivation, CellTiter-Glo; type: cell-based
Procedure: The effect of eEF2K inhibition on the malignant human bone osteosarcoma cancer cell line MG63 (ATCC No. CRL-1427) was evaluated under both normal conditions and during nutrient deprivation. […] One group of cells were grown under normal conditions (advanced MEM/glutamine/10% FBS) and the other group of cells were switched to conditions of nutrient deprivation (HBSS/22 mM HEPES) twenty-four hours after plating. Each group was divided into three subsets: cells receiving no treatment; cells receiving vehicle (DMSO) and cells receiving 10 μM of Compound 35.

- IC50 (recombinant eEF2K): 800 nM
SMILES: CC1(C)CCc2c1nc1sc(C(N)=O)c(N)c1c2-c1sccc1Br [Compound 34, 3-Amino-4-(3-bromo-thiophen-2-yl)-7,7-dimethyl-6,7-dihydro-5H-1-thia-8-aza-s-indacene-2-carboxylic acid amide]

- IC50 (recombinant eEF2K): 400 nM
- half-life [2]: 34 min
- Cmax ([2]; at five minutes): 356 ng/mL
SMILES: CC1(C)CCc2c(nc3sc(C(N)=O)c(N)c3c2-c2cncs2)C1 [Compound 35, 3-Amino-7,7-dimethyl-4-thiazol-5-yl-5,6,7,8-tetrahydro-thieno[2,3-b]quinoline-2-carboxylic acid amide]
- protection of H9C2 cells from doxorubicin-induced toxicity ([1]; 0.4 μM doxorubicin 24 hours, 2 μM or 10 μM compound twice daily for 72 hours): robust, dose-dependent protection
- recovery, percent of original density ([1]; 2 μM compound, by day 6): 85%
- recovery, percent of original density ([1]; 10 μM compound, by day 2): 85%
- percent of viable cells ([3]; MDA-MB-231, 0.4 μM doxorubicin 24 hours plus 10 μM Compound 35 twice daily for 72 hours, days 2, 4 and 6): significant decrease
- percent of viable cells ([3]; MDA-MB-231, 10 μM Compound 35 without doxorubicin, by day 6): increased substantially
- viability at 10 µM ([4]; Homo sapiens, MG-63, 144 h, MG63, nutrient deprivation (HBSS/22 mM HEPES), by day 6, read-out: percent viable cells): < 10%
- cell growth ([4]; MG63, normal conditions (advanced MEM/glutamine/10% FBS), 10 μM): significant growth

- IC50 (recombinant eEF2K): 400 nM
SMILES: CC1CC(C)(C)Cc2nc3sc(C(N)=O)c(N)c3c(-c3cncs3)c21 (stereo not shown) [Compound 36, 3-Amino-5,7,7-trimethyl-4-thiazol-5-yl-5,6,7,8-tetrahydro-thieno[2,3-b]quinoline-2-carboxylic acid amide]

- IC50 (recombinant eEF2K): 900 nM
SMILES: CC1(C)CCCc2c1nc1sc(C(N)=O)c(N)c1c2-c1cc(Br)co1 [Compound 37, 3-Amino-4-(4-bromo-furan-2-yl)-8,8-dimethyl-5,6,7,8-tetrahydro-thieno[2,3-b]quinoline-2-carboxylic acid amide]

- IC50 (recombinant eEF2K): 300 nM
SMILES: CC1(C)CCCc2c1nc1sc(C(N)=O)c(N)c1c2-c1cncs1 [Compound 38, 3-Amino-8,8-dimethyl-4-thiazol-5-yl-5,6,7,8-tetrahydro-thieno[2,3-b]quinoline-2-carboxylic acid amide]

- IC50 (recombinant eEF2K): 1400 nM
SMILES: Cn1cc(-c2c3c(nc4sc(C(N)=O)c(N)c24)C(C)(C)CCC3)cn1 [Compound 39, 3-Amino-8,8-dimethyl-4-(1-methyl-1H-pyrazol-4-yl)-5,6,7,8-tetrahydro-thieno[2,3-b]quinoline-2-carboxylic acid amide]

- IC50 (recombinant eEF2K): 400 nM
SMILES: Cc1ncsc1-c1c2c(nc3sc(C(N)=O)c(N)c13)C(C)(C)CC2 [Compound 40, 3-Amino-7,7-dimethyl-4-(4-methyl-thiazol-5-yl)-6,7-dihydro-5H-1-thia-8-aza-s-indacene-2-carboxylic acid amide]

- IC50 (recombinant eEF2K): 500 nM
SMILES: Cc1nc(C)c(-c2c3c(nc4sc(C(N)=O)c(N)c24)C(C)(C)CC3)s1 [Compound 41, 3-Amino-4-(2,4-dimethyl-thiazol-5-yl)-7,7-dimethyl-6,7-dihydro-5H-1-thia-8-aza-s-indacene-2-carboxylic acid amide]

- IC50 (recombinant eEF2K): 3100 nM
SMILES: NC(=O)c1sc2nc3c(c(-c4cncs4)c2c1N)CCCC31CCCC1 [Compound 42]

- IC50 (recombinant eEF2K): 900 nM
SMILES: NC(=O)c1sc2nc3c(c(-c4cncs4)c2c1N)C1CCC3C1 (stereo not shown) [Compound 43]

SMILES: COc1cccc2c1C(=O)c1c(O)c3c(c(O)c1C2=O)C[C@@](O)(C(=O)CO)C[C@@H]3O[C@H]1C[C@H](N)[C@H](O)[C@H](C)O1 [doxorubicin, reference compound]
- proliferation of remaining viable cells ([1]; H9C2, after doxorubicin was removed after 24 hours): failed to proliferate
- cell death ([1]; H9C2, control arm, 0.4 μM doxorubicin for 24 hours): 65%
- percent of viable cells ([3]; MDA-MB-231, 0.4 μM doxorubicin for 24 hours alone, by day 6): increased slightly

Source: patent US10106552B2, “Compounds inhibiting eukaryotic elongation factor 2 kinase activity” (Longevica Pharmaceuticals, Inc., priority 2013, dated 2018)
